Measurements as given in PMC9138545, “Incorporation of Oxidized Phenylalanine Derivatives into Insulin Signaling Relevant Proteins May Link Oxidative Stress to Signaling Conditions Underlying Chronic Insulin Resistance” (Biomedicines, 2022).

Tests used:
3T3-L1 adipocytes [1] = experiment: HPLC of non-protein-bound intracellular tyrosines; type: cell-based, mouse; conditions: for cellular uptake of amino acids (non-protein-bound intracellular content): 5 or 25 mmol/L glucose, with or without 400 nmol/L insulin; for uptake by fat cells: time-dependent incubation
Experimental: (§1) Early passages of mouse embryo fibroblast (3T3-L1) (ATCC, Manassas, VA, US) were cultured in Dulbecco’s modified Eagle medium (DMEM, Sigma Aldrich, Budapest, Hungary, CAT number: D6046; Invitrogen, Waltham, MA, USA, CAT number: 41966-029) supplemented with 100 U/mL penicillin, 0.1 mg/mL streptomycin (Gibco, Budapest, Hungary, CAT number: 15070-063) and 10% heat-inactivated Fetal Bovine Serum (FBS, Gibco, CAT number: 16170-078), supplemented with 398 nM p-, m-, or o-Tyr (equimolar to the original p-Tyr content of the medium) purchased from Sigma (CAT number: para-Tyr: T8566, m-Tyr: T3629, o-Tyr: 93851). Media contained 25 or 5 mmol/L glucose (experiment dependent) pyruvate and L-glutamine. Cells were grown at 37 °C and 5% CO2. Adipocyte differentiation was achieved by DMEM supplemented with 10% FBS (Gibco, Csertex, Budapest, Hungary, CAT number: 10106-169) (FBS) and a […] insulin (Sigma Aldrich, Budapest, Hungary, CAT number: I 9278), […] isobuthylmethylxanthine (Sigma Aldrich, Budapest, Hungary, CAT number: I 5879), and 250 nmol/L dexamethasone (Sigma Aldrich, Budapest, Hungary, CAT number: 861871) containing cocktail. From day 4 onward, cultures were maintained in DMEM containing 1.5 μg/mL insulin and 10% FBS with a medium change every other day until experimental treatments were started. After 90% of the cell population reached the adipocyte phenotype, prior to all treatments, cells were incubated overnight in serum-deprived medium. Experimental treatment was performed in serum-deprived medium containing 200 or 400 nmol/L insulin, for 5 min.
To measure the total intracellular non-protein-bound tyrosine concentration, prior to the freezing of samples overnight at −70 °C to achieve cell lysis, 200 μL distilled water was added to each. After melting up, samples were centrifuged for 15 min at 15,000 rpm. A total of 200 µL of the supernatant was mixed with 200 µL of 60% trichloroacetic acid. After 30 min incubation on ice, samples were centrifuged again at 15,000 rpm for 15 min. Then, the supernatant was filtered and was diluted 5-fold and then 160 µL distilled water was added to 40 µL of filtrate, followed by the injection of the mixture onto the HPLC column.
The amounts of p-, o-, m-Tyr and Phe in the samples were determined by measuring their autofluorescence. Thus, no derivatization or staining was needed. Samples were measured on a Shimadzu Class 10 HPLC system equipped with an RF-10 AXL fluorescent detector (Shimadzu USA Manufacturing Inc., Canby, OR, USA). The mobile phase consisted of 1% sodium acetate and 1% acetic acid dissolved in water. The separation took place on a LiChroCHART 250-4 column (Merck KGaA, Darmstadt 64271, Germany) in an isocratic run. Wavelengths of 275 nm for excitation and 305 nm for emission were used to assess p-, o- and m-Tyr, while Phe was detected at 258 nm excitation and 288 nm emission wavelengths. Determination of the area under the curve (AUC) plus external standard calibration was used to calculate the precise concentrations of the amino acids.

IRS-1 (Tyr612) = experiment: Western blot, activating phosphorylation of IRS-1 (Tyr612); type: cell-based; conditions: n = 4–8; for insulin-induced IRS-1 phosphorylation: 400 nmol/L insulin, adipocytes, HEK cells, podocytes, macrophages; for basal IRS-1 phosphorylation: without insulin, cells grown on o- or m-Tyr medium
Experimental: as §1
The conditionally immortalized human podocyte cell line (provided by Moin Saleem, University of Bristol, UK) was cultured in RPMI1640 medium (R8756, Sigma Aldrich, Budapest, Hungary) supplemented with 10% heat-inactivated FBS (16170-078, Gibco, Budapest, Hungary), insulin-transferrin-selenium supplement (41400-045, Gibco), 100 U/mL penicillin, 0.1 mg/mL streptomycin (P4333, Sigma), and […] (equimolar to the original p-Tyr content of the medium) para-, meta-, or ortho-Tyr. The cells were grown at 33 °C 5% CO2, and when they reached 40–60% confluency they were transferred to 37 °C to differentiate. Following the thermoswitching, cells were kept on RPMI1640 medium containing 2% FBS, antibiotics, and different tyrosines. Before every treatment, cells were incubated in serum-deprived medium overnight.
HEK-293 immortalized cell line (ATCC, Manassas, VA, USA) of epithelial morphology and the J774A.1 mouse BALB/C monocyte-macrophage cell lines (91051511-1VL, Sigma Aldrich, Budapest, Hungary) were cultured in Petri dishes with a medium composed of Dulbecco’s modified Eagle’s medium (DMEM, Sigma Aldrich, Budapest, Hungary, CAT number: D6046, Invitrogen, CAT number: 41966-029), with a 10% heat-inactivated FBS supplementation (16170-078, Gibco), insulin-transferrin-selenium supplement (41400-045, Gibco, Budapest, Hungary,), 100 U/mL penicillin and 0.1 mg/mL streptomycin (P4333, Sigma) and 398 nM para (5 and 25 mmol/L), meta-, or ortho-Tyr (T8566, T3629, 93851, Sigma). Before treatment, cells were incubated in serum-deprived medium overnight as well. […]
The samples of lysates were vortexed and centrifuged (10 min, 13,000 rpm, at 4 °C). Protein content of the samples was determined by the Lowry method using bovine serum albumin as a standard. […]

3T3-L1 adipocytes [2] = experiment: Isotope glucose uptake (deoxy-D-glucose 2-[1 2-3H(N)]) in differentiated 3T3-L1 adipocytes; type: cell-based, mouse; conditions: for insulin-induced glucose uptake, time dependence: 200 nmol/L insulin, cells grown 1, 2, 3, 4, 5 or 12 days with p-, n = 5–8; for insulin-induced glucose uptake, time dependence / insulin-induced glucose uptake, 5 mmol/L glucose: m- or o-Tyr; for insulin-induced glucose uptake, 5 mmol/L glucose: 2, 20, 200, 400 nmol/L insulin, medium with p-; for non-stimulated (basal) glucose uptake: no insulin, cells grown 1-12 days with m- or o-Tyr, vs. p-Tyr control
Experimental: as §1
Initially, cells were kept in glucose-free DMEM (Gibco, Csertex, Budapest, Hungary) for 30 min and then were treated with 2, 20, 200, or 400 nmol/L insulin for 100 min. Concurrently, 1 μCi/mL deoxy-D-glucose 2-[1 2-3H(N)] (3.7 × 104 Bq/mL) (Izotóp Intézet, Budapest, Hungary) was added to the plates for 100 min. After scraping the cells into the medium, they were centrifuged for 5 min at 1000 rpm. We dissolved the sediment in 70 μL of lysis buffer, then glucose uptake was determined by scintillation counting by measuring 30 μL of the sample, using a Beckman LS 5000 TD counter, in counts per minute (CPM), for five minutes each, with average activity was used as the outcome. Following freezing overnight at −70 °C, protein concentration was measured with a Hitachi spectrophotometer. Results were normalized for protein content.

Structure (SMILES)	cellular uptake of amino acids (non-protein-bound intracellular content) (3T3-L1 adipocytes [1])	uptake by fat cells (3T3-L1 adipocytes [1])	insulin-induced IRS-1 phosphorylation (IRS-1 (Tyr612))	basal IRS-1 phosphorylation (IRS-1 (Tyr612))	insulin-induced glucose uptake, time dependence (3T3-L1 adipocytes [2])	insulin-induced glucose uptake, 5 mmol/L glucose (3T3-L1 adipocytes [2])	non-stimulated (basal) glucose uptake (3T3-L1 adipocytes [2])
NC(Cc1ccccc1O)C(=O)O (centres unmarked) [o-Tyr, ortho-tyrosine]	continuous uptake of amino acids which was independent of glucose concentration (5 or 25 mmol/L) and the presence of insulin	Taken Up by Fat Cells within Several Minutes	could not be further raised by insulin treatment	either unchanged or higher	no significant effect	failed to induce the glucose uptake	lower than that of the p-Tyr control
N[C@@H](Cc1cccc(O)c1)C(=O)O [m-Tyr, meta-tyrosine]	continuous uptake of amino acids which was independent of glucose concentration (5 or 25 mmol/L) and the presence of insulin	Taken Up by Fat Cells within Several Minutes	could not be further raised by insulin treatment	either unchanged or higher	no significant effect	failed to induce the glucose uptake	lower than that of the p-Tyr control
